Data taken from the supplement of paper PMC10307832.

Tests used:
Test in all cases: relative viability (nuclei count vs DMSO), 5 days (fraction); higher = more cells survive
IPA-3 + Navitoclax = compound: C1=CC=C2C(=C1)C=CC(=C2SSC3=C(C=CC4=CC=CC=C43)O)O [IPA-3] + CC1(C)CCC(c2ccc(Cl)cc2)=C(CN2CCN(c3ccc(C(=O)NS(=O)(=O)c4ccc(N[C@H](CCN5CCOCC5)CSc5ccccc5)c(S(=O)(=O)C(F)(F)F)c4)cc3)CC2)C1 [Navitoclax] (partner 0.5 µM)
Method in brief: (§1)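 For relative viability, nuclei counts in treated wells were divided by those in vehicle wells. Lung cancer cell lines had been pin-tool dosed in 1536-well plates the day after seeding and cultured for 5 days, then fixed and stained in one step (final 0.05% Triton X-100, 1% formaldehyde, 1 ug/ml Hoechst) and imaged at 4×. Doses were one drug alone or a fixed anchor-drug dose plus five library-drug doses (not always all listed) in √10 steps, and values are duplicate-plate medians.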

Doramapimod + Bortezomib = compound: Cc1ccc(-n2nc(C(C)(C)C)cc2NC(=O)Nc2ccc(OCCN3CCOCC3)c3ccccc23)cc1 [Doramapimod] + CC(C)C[C@H](NC(=O)[C@H](Cc1ccccc1)NC(=O)c1cnccn1)B(O)O [Bortezomib] (partner 0.002 µM)
Method in brief: as §1

Doramapimod + Phenformin = compound: Cc1ccc(-n2nc(C(C)(C)C)cc2NC(=O)Nc2ccc(OCCN3CCOCC3)c3ccccc23)cc1 [Doramapimod] + N=C(N)NC(=N)NCCc1ccccc1 [Phenformin] (partner 250 µM)
Method in brief: as §1

RAF265 + Tozasertib = compound: Cn1c(Nc2ccc(C(F)(F)F)cc2)nc2cc(Oc3ccnc(-c4ncc(C(F)(F)F)[nH]4)c3)ccc21 [RAF265] + Cc1cc(Nc2cc(N3CCN(C)CC3)nc(Sc3ccc(NC(=O)C4CC4)cc3)n2)n[nH]1 [Tozasertib] (partner 0.1 µM)
Method in brief: as §1

**Q.** Which results are given for UMC-11?
**A.** relative viability (IPA-3 + Navitoclax; first compound 0.2 µM): 0.319; relative viability (IPA-3 + Navitoclax; first compound 0.6325 µM): 0.306; relative viability (IPA-3 + Navitoclax; first compound 2 µM): 0.321; relative viability (IPA-3 + Navitoclax; first compound 6.325 µM): 0.367; relative viability (IPA-3 + Navitoclax; first compound 20 µM): 0.462; relative viability (Doramapimod + Bortezomib; first compound 0.02 µM): 0.772; relative viability (Doramapimod + Bortezomib; first compound 0.06325 µM): 0.784; relative viability (Doramapimod + Bortezomib; first compound 0.2 µM): 0.564; relative viability (Doramapimod + Bortezomib; first compound 0.6325 µM): 0.675; relative viability (Doramapimod + Bortezomib; first compound 2 µM): 0.568; relative viability (Doramapimod + Phenformin; first compound 0.02 µM): 0.319; relative viability (Doramapimod + Phenformin; first compound 0.06325 µM): 0.32; relative viability (Doramapimod + Phenformin; first compound 0.2 µM): 0.339; relative viability (Doramapimod + Phenformin; first compound 0.6325 µM): 0.368; relative viability (Doramapimod + Phenformin; first compound 2 µM): 0.309; relative viability (RAF265 + Tozasertib; first compound 0.01 µM): 0.191; relative viability (RAF265 + Tozasertib; first compound 0.03162 µM): 0.212; relative viability (RAF265 + Tozasertib; first compound 0.1 µM): 0.201; relative viability (RAF265 + Tozasertib; first compound 0.3162 µM): 0.19; relative viability (RAF265 + Tozasertib; first compound 1 µM): 0.174
